Experimental data reported in patent US7138361B2, “Herbicidal heterocycles” (E. I. du Pont de Nemours and Company, priority 2000, dated 2006).

Tests used:
Format in all cases: in vivo
[1] = test system: crabgrass (Digitaria sanguinalis); experiment: Test B postemergence; conditions: 13 to 15 days
Procedure, shortened: (§1)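 Ratings on a 0 to 100 visual scale (100 complete control) compare treated plants with controls 13 to 15 days after application. Treatments were pre- or postemergence sprays of compound in non-phytotoxic solvent with surfactant.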

[2] = test system: velvetleaf (Abutilon theophrasti); experiment: Test B postemergence; conditions: 13 to 15 days
Procedure, shortened: as §1

[3] = test system: blackgrass (Alopecurus myosuroides); experiment: Test B postemergence; conditions: 13 to 15 days
Procedure, shortened: as §1

[4] = test system: barnyardgrass (Echinochloa crus-galli); experiment: Test B postemergence; conditions: 13 to 15 days
Procedure, shortened: as §1

[5] = test system: morning glory (Ipomoea hederacea); experiment: Test B postemergence; conditions: 13 to 15 days
Procedure, shortened: as §1

corn (Zea mays) [6] = experiment: Test B postemergence; conditions: 13 to 15 days
Procedure, shortened: as §1

wild oat (Avena fatua) = experiment: Test B postemergence; conditions: 13 to 15 days
Procedure, shortened: as §1

[7] = test system: giant foxtail (Setaria faberii); experiment: Test B postemergence; conditions: 13 to 15 days
Procedure, shortened: as §1

[8] = test system: wheat (Triticum aestivum); experiment: Test B postemergence; conditions: 13 to 15 days
Procedure, shortened: as §1

[9] = test system: Surinam grass (Brachiaria decumbens); experiment: Test B postemergence; conditions: 13 to 15 days
Procedure, shortened: as §1

[10] = test system: pigweed (Amaranthus retroflexus); experiment: Test B postemergence; conditions: 13 to 15 days
Procedure, shortened: as §1

[11] = test system: lambsquarters (Chenopodium album); experiment: Test B postemergence; conditions: 13 to 15 days
Procedure, shortened: as §1

[12] = test system: cocklebur (Xanthium strumarium); experiment: Test B postemergence; conditions: 13 to 15 days
Procedure, shortened: as §1

[13] = test system: crabgrass (Digitaria sanguinalis); experiment: Test B preemergence
Procedure, shortened: as §1

[14] = test system: velvetleaf (Abutilon theophrasti); experiment: Test B preemergence
Procedure, shortened: as §1

[15] = test system: barnyardgrass (Echinochloa crus-galli); experiment: Test B preemergence
Procedure, shortened: as §1

[16] = test system: morning glory (Ipomoea hederacea); experiment: Test B preemergence
Procedure, shortened: as §1

corn (Zea mays) [17] = experiment: Test B preemergence
Procedure, shortened: as §1

[18] = test system: giant foxtail (Setaria faberii); experiment: Test B preemergence
Procedure, shortened: as §1

[19] = test system: Surinam grass (Brachiaria decumbens); experiment: Test B preemergence
Procedure, shortened: as §1

[20] = test system: pigweed (Amaranthus retroflexus); experiment: Test B preemergence
Procedure, shortened: as §1

[21] = test system: lambsquarters (Chenopodium album); experiment: Test B preemergence
Procedure, shortened: as §1

[22] = test system: cocklebur (Xanthium strumarium); experiment: Test B preemergence
Procedure, shortened: as §1

rice (Oryza saliva) [23] = experiment: Test B preemergence
Procedure, shortened: as §1

[24] = test system: barnyardgrass (Echinochloa crus-galli); experiment: Test C flooded paddy test; conditions: for Barnyardgrass plant response rating: Flooded Paddy, scale 0 to 100, 0 no effect, 100 complete control; for Plant response rating, Barnyardgrass: flooded paddy test, scale 0 to 100 (0 no effect, 100 complete control)
Procedure, shortened: (§2)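 Response on a 0-to-100 scale (no effect to complete control) was assessed by eye versus controls. Plants had reached 2 leaves when treated in flooded paddy conditions. The assessment took place after 12–14 days of greenhouse growth.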

[25] = test system: smallflower flatsedge (Cyperus difformis); experiment: Test C flooded paddy test; conditions: for Flatsedge plant response rating: Flooded Paddy, scale 0 to 100, 0 no effect, 100 complete control; for Plant response rating, Flatsedge: flooded paddy test, scale 0 to 100 (0 no effect, 100 complete control)
Procedure, shortened: as §2

[26] = test system: duck salad (Heteranthera limosa); experiment: Test C flooded paddy test; conditions: for Ducksalad plant response rating: Flooded Paddy, scale 0 to 100, 0 no effect, 100 complete control; for Plant response rating, Ducksalad: flooded paddy test, scale 0 to 100 (0 no effect, 100 complete control)
Procedure, shortened: as §2

rice (Oryza saliva) [27] = experiment: Test C flooded paddy test; conditions: for Rice plant response rating: Flooded Paddy, scale 0 to 100, 0 no effect, 100 complete control; for Plant response rating, Rice: flooded paddy test, scale 0 to 100 (0 no effect, 100 complete control)
Procedure, shortened: as §2

[28] = Rate 125 g/ha, scale 0 (no effect) to 100 (complete control)
[29] = Rate 500 g/ha, scale 0 to 100, 0 is no effect, 100 is complete control
[30] = Preemergence, Rate 500 g/ha, scale 0 to 100, 0 no effect, 100 complete control
[31] = preemergence, Rate 125 g/ha, scale of 0 to 100 where 0 is no effect and 100 is complete control, 13 to 15 days

Structure (SMILES): CC(C)c1ccn(C2OCN(c3cccc(OC(F)(F)F)c3)C2=O)n1 (stereo not shown) [Compound 65]
- Plant response rating, Crabgrass [1, 28]: 0
- Plant response rating, Crabgrass [1, 29]: 100
- Plant response rating, Velvetleaf [2, 28]: 0
- Plant response rating, Velvetleaf [2, 29]: 0
- Plant response rating, Blackgrass [3, 28]: 0
- Plant response rating, Blackgrass [3, 29]: 0
- Plant response rating, Barnyardgrass [4, 28]: 0
- Plant response rating, Barnyardgrass [4, 29]: 100
- Plant response rating, Morningglory [5, 28]: 0
- Plant response rating, Morningglory [5, 29]: 0
- Plant response rating, Corn (corn (Zea mays) [6]; [28]): 0
- Plant response rating, Corn (corn (Zea mays) [6]; [29]): 0
- Plant response rating, Wild Oat (wild oat (Avena fatua); [28]): 0
- Plant response rating, Wild Oat (wild oat (Avena fatua); [29]): 0
- Plant response rating, Foxtail, Giant [7, 28]: 0
- Plant response rating, Foxtail, Giant [7, 29]: 0
- Plant response rating, Wheat [8, 28]: 0
- Plant response rating, Wheat [8, 29]: 0
- Plant response rating, Surinam grass [9, 28]: 20
- Plant response rating, Surinam grass [9, 29]: 40
- Plant response rating, Pigweed [10, 28]: 0
- Plant response rating, Pigweed [10, 29]: 0
- Plant response rating, Lambsquarters [11, 28]: 60
- Plant response rating, Lambsquarters [11, 29]: 70
- Plant response rating, Cocklebur [12, 28]: 20
- Plant response rating, Cocklebur [12, 29]: 30
- Plant response rating, Crabgrass [13, 30]: 70
- Plant response rating, Crabgrass [13, 31]: 20
- Plant response rating, Velvetleaf [14, 30]: 20
- Plant response rating, Velvetleaf [14, 31]: 0
- Plant response rating, Barnyardgrass [15, 30]: 100
- Plant response rating, Barnyardgrass [15, 31]: 90
- Plant response rating, Morningglory [16, 30]: 0
- Plant response rating, Morningglory [16, 31]: 0
- Plant response rating, Corn (corn (Zea mays) [17]; [30]): 0
- Plant response rating, Corn (corn (Zea mays) [17]; [31]): 0
- Plant response rating, Foxtail, Giant [18, 30]: 70
- Plant response rating, Foxtail, Giant [18, 31]: 20
- Plant response rating, Surinam grass [19, 30]: 20
- Plant response rating, Surinam grass [19, 31]: 0
- Plant response rating, Pigweed [20, 30]: 100
- Plant response rating, Pigweed [20, 31]: 100
- Plant response rating, Lambsquarters [21, 30]: 100
- Plant response rating, Lambsquarters [21, 31]: 100
- Plant response rating, Cocklebur [22, 30]: 20
- Plant response rating, Cocklebur [22, 31]: 0
- Plant response rating, Rice (rice (Oryza saliva) [23]; [30]): 20
- Plant response rating, Rice (rice (Oryza saliva) [23]; [31]): 0
- Barnyardgrass plant response rating ([24]; Rate 250 g/ha): 100
- Barnyardgrass plant response rating ([24]; Rate 500 g/ha): 100
- Plant response rating, Barnyardgrass ([24]; Rate 62 g/ha): 40
- Plant response rating, Barnyardgrass ([24]; Rate 125 g/ha): 80
- Flatsedge plant response rating ([25]; Rate 250 g/ha): 100
- Flatsedge plant response rating ([25]; Rate 500 g/ha): 100
- Plant response rating, Flatsedge ([25]; Rate 62 g/ha): 0
- Plant response rating, Flatsedge ([25]; Rate 125 g/ha): 100
- Ducksalad plant response rating ([26]; Rate 250 g/ha): 30
- Ducksalad plant response rating ([26]; Rate 500 g/ha): 90
- Plant response rating, Ducksalad ([26]; Rate 62 g/ha): 0
- Plant response rating, Ducksalad ([26]; Rate 125 g/ha): 0
- Rice plant response rating (rice (Oryza saliva) [27]; Rate 250 g/ha): 90
- Rice plant response rating (rice (Oryza saliva) [27]; Rate 500 g/ha): 90
- Plant response rating, Rice (rice (Oryza saliva) [27]; Rate 62 g/ha): 0
- Plant response rating, Rice (rice (Oryza saliva) [27]; Rate 125 g/ha): 40
